Test results taken from US20050261331A1, “Substituted pyrrolopyridines” (priority 2002, published 2005).
Where a name gives a salt, the structure may show the parent alone.

Target: T1, recombinant human Itk kinase domain fused with GST (Homo sapiens, UniProt Q08881)
T1 construct: recombinant human Itk kinase domain fused with GST; made in house; host or cells: High Five insect cells
T1 sequence (Q08881 363-615 limits assumed): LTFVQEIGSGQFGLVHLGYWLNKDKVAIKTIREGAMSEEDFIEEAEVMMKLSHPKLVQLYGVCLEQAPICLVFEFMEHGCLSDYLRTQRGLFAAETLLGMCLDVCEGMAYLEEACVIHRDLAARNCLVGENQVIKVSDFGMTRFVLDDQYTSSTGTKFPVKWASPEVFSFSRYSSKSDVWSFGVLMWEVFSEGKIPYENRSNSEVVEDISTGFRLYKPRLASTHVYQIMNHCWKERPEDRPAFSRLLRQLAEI
Assay: Itk LANCE TRF Assay
Format: biochemical
Settings: 160 ng/well Itk, 2 μM peptide substrate, 50 μM ATP, 50 minutes RT; read-out: Inhibition of Kinase Itk (IC50 μM)
Procedure: The Itk kinase assay utilized recombinant human Itk kinase domain fused with GST (Glutathione S-Transferase). The protein was expressed in High five insect cells, purified in one step on an affinity chromatography glutathione column and stored in 50 mM Tris/HCl (pH 7.6), 150 mM NaCl, 5% (w/v) mannitol, 1 mM DTT, 30% glycerol at −70° C. The kinase substrate used in the assay was a biotinylated peptide derived from the Src-optimal substrate (Nair et al, J. Med. Chem., 38: 4276, 1995; biotin-AEEEIYGEFEAKKKK).
The assay additions were as follows: Test compounds (or controls; 1 μL in 100% DMSO) were added to black 96-well flat-bottomed plates (Greiner 655076) followed by 20 μL Itk in assay buffer and the reaction was started by adding 20 μL ATP and peptide substrate in assay buffer. The assay buffer constitution during phosphorylation was: 50 mM HEPES (pH 6.8), 10 mM MgCl2, 0.015% Brij 35, 1 mM DTT, 10% glycerol, 160 ng/well Itk, 2 μM peptide substrate and 50 μM ATP. The assay was stopped after 50 minutes (RT) by adding 150 μL ice-cold Stop solution (50 mM Tris/HCl, pH 7.5, 10 mM EDTA, 0.9% NaCl and 0.1% BSA) together with LANCE reagents (2 nM PT66-Eu^3+, Wallac AD0069 and 5 μg/ml Streptavidin-APC, Wallac AD0059. Both concentrations were final in stopped assay solution). The plates were measured on a Wallac 1420 Victor 2 instrument with TRF settings after 1 h incubation, and the ratio (665 signal/615 signal)*10000 was used to calculate the inhibition values. IC50 values were determined using XLfit.

IC50 [µM]	SMILES
0.01	CN(C)CCCOc1ccc(-c2c(-c3ccco3)[nH]c3ncc(Br)cc23)cc1 [Example 5, 3-{4-[S-Bromo-2-(2-furyl)-1H-pyrrolo[2,3-b]pyridin-3-yl]phenoxy}-N,N-dimethylpropan-1-amine trifluoroacetate]
0.03	CC(=O)NCc1ccc(-c2c(-c3ccccc3)[nH]c3ncc(Br)cc23)o1 [Example 13, N-[5-(5-Bromo-2-phenyl-1-H-pyrrolo[2,3-b]pyridin-3-yl)-furan-2-ylmethyl]-acetamide]
0.44	N#Cc1cnc2[nH]c(-c3ccccc3)c(-c3ccc(N4CCOCC4)cc3)c2c1 [Example 44, 3-(4-Morpholin-4-ylphenyl)-2-phenyl-1H-pyrrolo[2,3-b]pyridine-5-carbonitrile]
0.01	Cc1c(Br)cnc2[nH]c(-c3ccc(OCCCN(C)C)cc3)c(-c3cccnc3)c12 [Example 55, {3-[4-(5-Bromo-4-methyl-3-pyridin-3-yl-1H-pyrrolo[2,3-b]pyridin-2-yl)phenoxy]propyl}dimethylamine]
0.04	CN(C)CCCN(C)c1ccc(-c2[nH]c3ncc(Cl)cc3c2-c2cncnc2)cn1 [Example 61, N-[5-(5-Chloro-3-pyrimidin-5-yl-1H-pyrrolo[2,3-b]pyridin-2-yl]-N,N′,N′-trimethylpropane-1,3-diaminetrihydrochloride]

Tested on: not given
Assay: not given
Settings: not given

melting point [°C]	SMILES
105 to 107	Brc1cnc2[nH]c(-c3ccccc3)c(-c3ccco3)c2c1 [Example 12, 5-Bromo-3-furan-2-yl-2-phenyl-1-H-pyrrolo[2,3-b]pyridine]
176 to 176.5	CC(=O)NCc1ccc(-c2c(-c3ccccc3)[nH]c3ncc(Br)cc23)o1 [Example 13, N-[5-(5-Bromo-2-phenyl-1-H-pyrrolo[2,3-b]pyridin-3-yl)-furan-2-ylmethyl]-acetamide]
